Entries after “also recorded” stand apart in the source; their conditions may differ. Ends that are not written are not given here.
Key:
RXFP1 = biological target: T1, RXFP1 (Homo sapiens, UniProt Q9HBX9); test: cAMP reporter gene assay in HEK-293T cells stably expressing RXFP1; type: cell-based; settings: in words
T1 construct: expressed in transfected cells; host or cells: HEK-293T cells stably transfected with RXFP1
T1 sequence (Q9HBX9 1-757): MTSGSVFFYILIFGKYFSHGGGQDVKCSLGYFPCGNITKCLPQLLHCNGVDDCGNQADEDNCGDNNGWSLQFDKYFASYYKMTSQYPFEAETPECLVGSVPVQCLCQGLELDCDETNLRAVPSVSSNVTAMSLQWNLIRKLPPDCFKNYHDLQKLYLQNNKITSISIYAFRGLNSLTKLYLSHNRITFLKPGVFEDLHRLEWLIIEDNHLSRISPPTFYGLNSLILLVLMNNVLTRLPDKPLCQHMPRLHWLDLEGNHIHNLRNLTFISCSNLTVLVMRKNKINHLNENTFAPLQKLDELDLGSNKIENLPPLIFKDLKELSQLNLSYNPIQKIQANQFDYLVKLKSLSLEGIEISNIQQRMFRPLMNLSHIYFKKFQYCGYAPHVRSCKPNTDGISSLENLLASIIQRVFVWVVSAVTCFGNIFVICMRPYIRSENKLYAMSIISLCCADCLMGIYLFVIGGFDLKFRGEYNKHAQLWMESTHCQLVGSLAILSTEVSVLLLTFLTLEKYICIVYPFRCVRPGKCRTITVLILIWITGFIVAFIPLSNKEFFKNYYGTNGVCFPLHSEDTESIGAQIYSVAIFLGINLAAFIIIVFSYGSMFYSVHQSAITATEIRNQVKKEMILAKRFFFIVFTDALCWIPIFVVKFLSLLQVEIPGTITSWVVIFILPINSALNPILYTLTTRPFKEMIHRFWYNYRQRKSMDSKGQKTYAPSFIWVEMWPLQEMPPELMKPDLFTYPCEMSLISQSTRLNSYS
Description: Stimulation of the RXFP1 receptor results in the activation of adenylate cyclase and therefore in an increase in cAMP. […] Each concentration point was performed in triplicate and peptides were tested in at least three independent experiments. Data were analyzed with GraphPad Prism 4.0 (GraphPad Software, San Diego, Calif., USA), and a nonlinear regression sigmoidal dose-response (variable slope) model was used to plot curves and calculate pEC50 values.

[1] = tested on: mice with diastolic heart failure and controls; test: subcutaneous infusion of relaxin in mice with diastolic dysfunction; type: in vivo
Description: The present inventors have therefore used an animal model for testing the treatment for DHF and of a stiffened heart muscle having insufficient relaxation and distensibility. The table below summarizes data obtained in mice with a type of diastolic heart failure as compared with controls. The subcutaneous infusion of isolated porcine relaxin over 12 weeks in mice (50 μg porcine relaxin/kg/d) decreased end-diastolic pressure and, consequently, improved E/A ratio, a functional parameter indicating the quality of ventricular filling. The subcutaneous infusion of relaxin was obtained by implanting in the neck portion of the mice a membrane capsule releasing continuously porcine relaxin.

[2] = tested on: patients with heart failure; settings: intravenous infusion, hemodynamic monitoring; cited from earlier work
[3] = control mice, 50 μg/kg/d s.c. infusion, 12 weeks, mean ± SEM
[4] = mice with diastolic dysfunction, 50 μg/kg/d s.c. infusion, 12 weeks, mean ± SEM

Question: For `CC[C@H](C)[C@@H]1NC(=O)[C@H](C)NC(=O)[C@H]([C@@H](C)CC)NC(=O)[C@H](CCC(N)=O)NC(=O)[C@H](C)NC(=O)[C@H](CCCNC(=N)N)NC(=O)[C@H](C(C)C)NC(=O)[C@H](CC(C)C)NC(=O)[C@H](CCC(=O)O)NC(=O)[C@H](CCCNC(=N)N)NC(=O)CNC(=O)[C@@H](NC(=O)[C@H](CC(C)C)NC(=O)[C@H](CCCCN)NC(=O)[C@@H](NC(=O)[C@@H](NC(=O)[C@H](CCC(=O)O)NC(=O)[C@H](CCC(=O)O)NC(=O)[C@H](CCSC)NC(=O)[C@H](Cc2c[nH]c3ccccc23)NC(=O)[C@@H](N)CO)C(C)C)[C@@H](C)CC)CSSC[C@@H]2NC(=O)[C@@H](NC(=O)[C@H](CCCCN)NC(=O)[C@H](CC(N)=O)NC(=O)[C@H](C)NC(=O)[C@H](CC(C)C)NC(=O)[C@H](C)NC(=O)[C@H](CO)NC(=O)[C@H](Cc3ccc(O)cc3)NC(=O)[C@H](CC(C)C)NC(=O)[C@@H]3CCC(=O)N3)CSSC[C@H](NC(=O)CNC(=O)[C@H](C(C)C)NC(=O)[C@H](Cc3c[nH]cn3)NC2=O)C(=O)N[C@@H]([C@@H](C)O)C(=O)N[C@@H](CCCCN)C(=O)N[C@@H](CCCNC(=N)N)C(=O)N[C@@H](CO)C(=O)N[C@@H](CC(C)C)C(=O)N[C@@H](C)C(=O)N[C@@H](CCCNC(=N)N)C(=O)N[C@@H](Cc2ccccc2)C(=O)N[C@H](C(=O)O)CSSC[C@@H](C(=O)NCC(=O)N[C@@H](CCSC)C(=O)N[C@@H](CO)C(=O)N[C@H](C(=O)N[C@@H](Cc2c[nH]c3ccccc23)C(=O)N[C@@H](CO)C(=O)O)[C@@H](C)O)NC1=O` [-Asp-shRlx], which “biological activity of the by-product” value (RXFP1) is on record?
Answer: Its value is “biologically fully active”.

Question: For “porcine relaxin (Relaxin B chain QSTNDFIKACGRELVRLWVEICGSVSWGRTAL; Relaxin A chain RMTLSEKCCQVGCIRKDIARLC; not fully specified; ends and bridges not checked; UniProt P01348 25-56; P01348 161-182, looked up) [isolated porcine relaxin, released continuously from an implanted membrane capsule]”, which E/A ratio [1, 3] is on record?
Answer: Its E/A ratio is 2.4 ± 0.2.

Question: And the “LVEDP, left ventricular end-diastolic pressure” value [1, 3]?
Answer: The value was 5.2 ± 0.5 mm Hg.

Question: And the “LVSP, left ventricular systolic pressure” value [1, 3]?
Answer: Its value is 109 ± 10 mm Hg.

Question: What about the “effect on heart function in controls” value ([1]; control mice, in words) of the same compound?
Answer: Its value is “no pharmaceutical effects were noted”.

Question: And the E/A ratio ([1]; mice with diastolic dysfunction, 50 μg/kg/d s.c. over 12 weeks, in words)?
Answer: Its E/A ratio is “improved; also recorded: dramatically shifted back to the normal range”.

Question: And the E/A ratio [1, 4]?
Answer: Its E/A ratio is 2.0 ± 0.2.

Question: What about the “LVEDP, left ventricular end-diastolic pressure” value [1, 4] of the same compound?
Answer: Its value is 7.0 ± 0.6 mm Hg.

Question: And the “LVSP, left ventricular systolic pressure” value [1, 4]?
Answer: Its value is 111 ± 12 mm Hg.

Question: What about the end-diastolic pressure ([1]; mice, 50 μg/kg/d s.c. over 12 weeks, in words) of the same compound?
Answer: The end-diastolic pressure was “decreased”.

Question: For recombinant human relaxin-2 [rhRlx], which cardiac index [2] is on record?
Answer: The cardiac index was “trends toward increases”.

Question: And the pulmonary wedge pressure [2]?
Answer: The pulmonary wedge pressure was “decreases”.
